# Assay results from patent US8426408B2, “Pyrimidine inhibitors of kinases” (AbbVie Inc., priority 2009, dated 2013).
# How the values were obtained:
# [1] = target: T1, KDR (Homo sapiens, UniProt P35968); experiment: KDR HTRF in vitro kinase assay; assay type: biochemical; set-up: purified enzyme (His6-KDR 789-1354, MW 63 kD); His6 (N); conditions: 1 mM ATP; read-out: KDR enzyme inhibition data (Ki)
# In short: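 His6-KDR 789-1354 (7 ng/well) with 0.5 μM biotinylated peptide substrate and 1 mM ATP in HEPES pH 7.1, MgCl2/MnCl2, 60 min at room temperature. EDTA-quenched, detected by streptavidin-XL-665 plus Eu-kryptate anti-phosphotyrosine HTRF after 3 h; IC50 from 620/665 nm ratio.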
# Target sequence in this assay (P35968 789-1354): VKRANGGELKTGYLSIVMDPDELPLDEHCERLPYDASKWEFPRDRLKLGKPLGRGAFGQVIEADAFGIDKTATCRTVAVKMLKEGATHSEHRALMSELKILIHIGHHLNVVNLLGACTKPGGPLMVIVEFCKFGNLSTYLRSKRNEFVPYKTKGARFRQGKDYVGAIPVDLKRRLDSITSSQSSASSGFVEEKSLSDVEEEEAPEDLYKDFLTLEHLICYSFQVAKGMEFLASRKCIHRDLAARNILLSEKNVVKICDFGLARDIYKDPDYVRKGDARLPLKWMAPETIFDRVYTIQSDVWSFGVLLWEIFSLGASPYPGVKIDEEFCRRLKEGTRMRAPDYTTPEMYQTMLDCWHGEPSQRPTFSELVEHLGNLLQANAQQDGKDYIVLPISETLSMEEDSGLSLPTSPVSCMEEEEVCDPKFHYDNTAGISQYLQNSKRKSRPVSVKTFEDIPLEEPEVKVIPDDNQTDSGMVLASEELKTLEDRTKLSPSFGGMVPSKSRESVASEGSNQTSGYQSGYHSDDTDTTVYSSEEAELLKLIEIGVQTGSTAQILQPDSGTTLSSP
# [2] = target: T2, Aurora B (Homo sapiens, UniProt Q96GD4); experiment: Aurora B enzyme inhibition (time-resolved fluorescence, histone H3 peptide); assay type: biochemical; conditions: 1 mM ATP
# T2 construct: Active Aurora B enzyme (recombinant residues 1-344)
# T2 sequence (Q96GD4 whole entry, the tested form may be a part): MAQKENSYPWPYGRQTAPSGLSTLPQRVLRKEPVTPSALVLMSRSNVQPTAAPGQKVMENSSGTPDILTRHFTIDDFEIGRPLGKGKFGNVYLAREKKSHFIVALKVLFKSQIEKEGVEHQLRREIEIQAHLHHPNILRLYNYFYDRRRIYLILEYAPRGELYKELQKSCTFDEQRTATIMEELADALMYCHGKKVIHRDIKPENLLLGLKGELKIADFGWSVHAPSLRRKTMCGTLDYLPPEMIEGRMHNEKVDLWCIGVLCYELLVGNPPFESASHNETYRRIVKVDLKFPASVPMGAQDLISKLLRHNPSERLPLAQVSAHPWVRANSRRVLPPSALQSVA
# T2 sequence (Q9NQS7 826-918 partner limits assumed): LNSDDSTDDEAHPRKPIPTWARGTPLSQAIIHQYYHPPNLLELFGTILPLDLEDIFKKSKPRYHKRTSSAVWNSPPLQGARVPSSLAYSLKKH
# In short: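 Recombinant Aurora B (residues 1-344) with GST-INCENP phosphorylated biotinylated histone H3 (1-21) peptide at 1 mM ATP in HEPES pH 7.4 with MgCl2, orthovanadate and Triton X-100 for 1 h. After EDTA stop, the phosphopeptide was detected by TR-FRET (Eu-cryptate anti-phospho-H3 / SA-APC, 665/615 nm ratio). IC50 from an exponential fit.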
# [3] = target: T1, KDR; experiment: KDR cellular assay (KDR receptor phosphorylation ELISA); assay type: cell-based; set-up: expressed in transfected cells; host or cells: 3T3 (embryonic mouse) cells; conditions: KDR transfected 3T3 (embryonic mouse) cells, VEGF stimulated; read-out: IC50 inhibition of KDR phosphorylation
# In short: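 KDR-transfected mouse 3T3 cells treated 20 min at 37° C with half-log compound dilutions, then stimulated 10 min with VEGF (100 ng/ml solution). Lysates captured on anti-KDR plates; phosphorylation by biotin antibody/streptavidin-HRP ELISA at 450 nm. IC50 by non-linear regression.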
# Target sequence in this assay (P35968 20-1356): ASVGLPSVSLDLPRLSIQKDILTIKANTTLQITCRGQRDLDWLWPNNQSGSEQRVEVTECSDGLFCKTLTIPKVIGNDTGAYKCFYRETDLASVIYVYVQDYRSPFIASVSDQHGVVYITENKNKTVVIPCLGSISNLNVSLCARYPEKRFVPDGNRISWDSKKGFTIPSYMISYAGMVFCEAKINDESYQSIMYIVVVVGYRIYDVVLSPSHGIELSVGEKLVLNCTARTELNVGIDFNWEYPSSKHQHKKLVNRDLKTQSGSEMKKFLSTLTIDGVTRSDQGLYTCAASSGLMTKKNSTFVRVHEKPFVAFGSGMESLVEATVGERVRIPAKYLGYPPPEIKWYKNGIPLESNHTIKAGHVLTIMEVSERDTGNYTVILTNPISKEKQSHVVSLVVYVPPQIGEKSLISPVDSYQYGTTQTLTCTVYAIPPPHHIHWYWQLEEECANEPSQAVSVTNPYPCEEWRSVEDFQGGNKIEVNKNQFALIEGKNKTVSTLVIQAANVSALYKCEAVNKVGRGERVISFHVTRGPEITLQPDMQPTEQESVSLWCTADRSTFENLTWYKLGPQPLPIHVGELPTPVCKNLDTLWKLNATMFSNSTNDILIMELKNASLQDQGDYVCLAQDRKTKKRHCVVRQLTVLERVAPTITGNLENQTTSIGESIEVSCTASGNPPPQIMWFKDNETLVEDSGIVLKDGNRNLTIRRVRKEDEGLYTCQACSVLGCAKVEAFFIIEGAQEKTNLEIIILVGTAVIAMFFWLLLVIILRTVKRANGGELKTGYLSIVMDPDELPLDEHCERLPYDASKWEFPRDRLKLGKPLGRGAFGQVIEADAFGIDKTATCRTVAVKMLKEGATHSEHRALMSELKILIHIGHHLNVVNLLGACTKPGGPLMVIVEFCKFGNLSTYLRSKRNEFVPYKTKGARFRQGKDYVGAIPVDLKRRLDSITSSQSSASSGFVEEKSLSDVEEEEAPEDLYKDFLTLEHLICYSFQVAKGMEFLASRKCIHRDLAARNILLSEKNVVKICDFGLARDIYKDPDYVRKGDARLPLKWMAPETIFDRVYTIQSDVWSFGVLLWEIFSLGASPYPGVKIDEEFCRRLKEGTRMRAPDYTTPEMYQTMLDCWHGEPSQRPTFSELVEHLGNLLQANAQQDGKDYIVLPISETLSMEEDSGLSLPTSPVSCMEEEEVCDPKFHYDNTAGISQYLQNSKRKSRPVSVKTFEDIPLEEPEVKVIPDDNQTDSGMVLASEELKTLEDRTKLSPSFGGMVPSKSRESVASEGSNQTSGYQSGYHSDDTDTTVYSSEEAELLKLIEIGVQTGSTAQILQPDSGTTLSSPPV
Ki [1] [nM],Ki [2] [nM],IC50 [3] [nM],Structure (SMILES)
< 100,< 100,< 100,"Cn1cc(Nc2ncc(C(F)(F)F)c(N[C@@H]3[C@H](C(N)=O)[C@H]4C=C[C@@H]3C4)n2)cn1.Cn1cc(Nc2ncc(C(F)(F)F)c(N[C@H]3[C@@H](C(N)=O)[C@@H]4C=C[C@H]3C4)n2)cn1 (mixture of isomers) [Example 10, (1S,2S,3R,4R)-3-{[2-[(1-methyl-1H-pyrazol-4-yl)amino]-5-(trifluoromethyl)pyrimidin-4-yl]amino}bicyclo[2.2.1]hept-5-ene-2-carboxamide and (1R,2R,3S,4S)-3-{[2-[(1-methyl-1H-pyrazol-4-yl)amino]-5-(trifluoromethyl)pyrimidin-4-yl]amino}bicyclo[2.2.1]hept-5-ene-2-carboxamide]"
< 100,< 100,< 100,"CC(O)Cn1cc(Nc2ncc(C(F)(F)F)c(NC3C4C=CC(C4)C3C(N)=O)n2)cn1 (mixture of isomers) [Example 19, (1R,2R,3S,4S)-3-{[2-({1-[(2R)-2-hydroxypropyl]-1H-pyrazol-4-yl}amino)-5-(trifluoromethyl)pyrimidin-4-yl]amino}bicyclo[2.2.1]hept-5-ene-2-carboxamide and (1S,2S,3R,4R)-3-{[2-({1-[(2R)-2-hydroxypropyl]-1H-pyrazol-4-yl}amino)-5-(trifluoromethyl)pyrimidin-4-yl]amino}bicyclo[2.2.1]hept-5-ene-2-carboxamide]"
< 100,< 100,< 100,"Cn1cc(Nc2ncc(C(F)(F)F)c(N[C@@H]3[C@@H]4CC[C@@H](C4)[C@@H]3C(N)=O)n2)cn1.Cn1cc(Nc2ncc(C(F)(F)F)c(N[C@H]3[C@H]4CC[C@H](C4)[C@H]3C(N)=O)n2)cn1 (mixture of isomers) [Example 20, (1S,2S,3R,4R)-3-{[2-[(1-methyl-1H-pyrazol-4-yl)amino]-5-(trifluoromethyl)pyrimidin-4-yl]amino}bicyclo[2.2.1]heptane-2-carboxamide and (1R,2R,3S,4S)-3-{[2-[(1-methyl-1H-pyrazol-4-yl)amino]-5-(trifluoromethyl)pyrimidin-4-yl]amino}bicyclo[2.2.1]heptane-2-carboxamide]"
100 to 1000,100 to 1000,100 to 1000,"CC(O)Cn1cc(Nc2ncc(C(F)(F)F)c(NC3C4CCC(C4)C3C(N)=O)n2)cn1 (mixture of isomers) [Example 21, (1S,2R,3S,4R)-3-{[2-({1-[(2R)-2-hydroxypropyl]-1H-pyrazol-4-yl}amino)-5-(trifluoromethyl)pyrimidin-4-yl]amino}bicyclo[2.2.1]heptane-2-carboxamide and (1R,2S,3R,4S)-3-{[2-({1-[(2R)-2-hydroxypropyl]-1H-pyrazol-4-yl}amino)-5-(trifluoromethyl)pyrimidin-4-yl]amino}bicyclo[2.2.1]heptane-2-carboxamide]"
< 100,< 100,< 100,"CCn1cc(Nc2ncc(C(F)(F)F)c(N[C@@H]3[C@H](C(N)=O)[C@H]4C=C[C@@H]3C4)n2)cn1.CCn1cc(Nc2ncc(C(F)(F)F)c(N[C@H]3[C@@H](C(N)=O)[C@@H]4C=C[C@H]3C4)n2)cn1 (mixture of isomers) [Example 22, (1S,2S,3R,4R)-3-{[2-[(1-ethyl-1H-pyrazol-4-yl)amino]-5-(trifluoromethyl)pyrimidin-4-yl]amino}bicyclo[2.2.1]hept-5-ene-2-carboxamide and (1R,2R,3S,4S)-3-{[2-[(1-ethyl-1H-pyrazol-4-yl)amino]-5-(trifluoromethyl)pyrimidin-4-yl]amino}bicyclo[2.2.1]hept-5-ene-2-carboxamide]"
< 100,< 100,< 100,"CCn1cc(Nc2ncc(C(F)(F)F)c(N[C@@H]3[C@H]4CC[C@H](C4)[C@@H]3C(N)=O)n2)cn1.CCn1cc(Nc2ncc(C(F)(F)F)c(N[C@H]3[C@@H]4CC[C@@H](C4)[C@H]3C(N)=O)n2)cn1 (mixture of isomers) [Example 24, (1R,2S,3R,4S)-3-{[2-[(1-ethyl-1H-pyrazol-4-yl)amino]-5-(trifluoromethyl)pyrimidin-4-yl]amino}bicyclo[2.2.1]heptane-2-carboxamide and (1S,2R,3S,4R)-3-{[2-[(1-ethyl-1H-pyrazol-4-yl)amino]-5-(trifluoromethyl)pyrimidin-4-yl]amino}bicyclo[2.2.1]heptane-2-carboxamide]"
< 100,< 100,< 100,"CCn1cc(Nc2ncc(Br)c(N[C@@H]3[C@H](C(N)=O)[C@H]4C=C[C@@H]3C4)n2)cn1.CCn1cc(Nc2ncc(Br)c(N[C@H]3[C@@H](C(N)=O)[C@@H]4C=C[C@H]3C4)n2)cn1 (mixture of isomers) [Example 31, (1S,2S,3R,4R)-3-({5-bromo-2-[(1-ethyl-1H-pyrazol-4-yl)amino]pyrimidin-4-yl}amino)bicyclo[2.2.1]hept-5-ene-2-carboxamide and (1R,2R,3S,4S)-3-({5-bromo-2-[(1-ethyl-1H-pyrazol-4-yl)amino]pyrimidin-4-yl}amino)bicyclo[2.2.1]hept-5-ene-2-carboxamide]"
< 100,< 100,100 to 1000,"Cn1cc(Nc2ncc(Cl)c(N[C@@H]3[C@@H]4CC[C@@H](C4)[C@@H]3C(N)=O)n2)cn1.Cn1cc(Nc2ncc(Cl)c(N[C@H]3[C@H]4CC[C@H](C4)[C@H]3C(N)=O)n2)cn1 (mixture of isomers) [Example 113, (1R,2R,3S,4S)-3-({5-chloro-2-[(1-methyl-1H-pyrazol-4-yl)amino]pyrimidin-4-yl}amino)bicyclo[2.2.1]heptane-2-carboxamide and (1S,2S,3R,4R)-3-({5-chloro-2-[(1-methyl-1H-pyrazol-4-yl)amino]pyrimidin-4-yl}amino)bicyclo[2.2.1]heptane-2-carboxamide]"
< 100,< 100,100 to 1000,"CCn1cc(Nc2ncc(Cl)c(N[C@@H]3[C@@H]4CC[C@@H](C4)[C@@H]3C(N)=O)n2)cn1.CCn1cc(Nc2ncc(Cl)c(N[C@H]3[C@H]4CC[C@H](C4)[C@H]3C(N)=O)n2)cn1 (mixture of isomers) [Example 114, (1R,2R,3S,4S)-3-({5-chloro-2-[(1-ethyl-1H-pyrazol-4-yl)amino]pyrimidin-4-yl}amino)bicyclo[2.2.1]heptane-2-carboxamide and (1S,2S,3R,4R)-3-({5-chloro-2-[(1-ethyl-1H-pyrazol-4-yl)amino]pyrimidin-4-yl}amino)bicyclo[2.2.1]heptane-2-carboxamide]"
< 100,< 100,100 to 1000,"CCn1cc(Nc2ncc(Cl)c(N[C@@H]3[C@H](C(N)=O)[C@@H]4C=C[C@H]3C4)n2)cn1.CCn1cc(Nc2ncc(Cl)c(N[C@H]3[C@@H](C(N)=O)[C@H]4C=C[C@@H]3C4)n2)cn1 (mixture of isomers) [Example 121, (1S,2R,3S,4R)-3-({5-chloro-2-[(1-ethyl-1H-pyrazol-4-yl)amino]pyrimidin-4-yl}amino)bicyclo[2.2.1]hept-5-ene-2-carboxamide and (1R,2S,3R,4S)-3-({5-chloro-2-[(1-ethyl-1H-pyrazol-4-yl)amino]pyrimidin-4-yl}amino)bicyclo[2.2.1]hept-5-ene-2-carboxamide]"
100 to 1000,< 100,100 to 1000,"NC(=O)[C@@H]1CCC[C@@H]1Nc1nc(Nc2cnn(C3CCNCC3)c2)ncc1Cl.NC(=O)[C@H]1CCC[C@H]1Nc1nc(Nc2cnn(C3CCNCC3)c2)ncc1Cl (mixture of isomers) [Example 136, (1S,2R)-2-[(5-chloro-2-{[1-(piperidin-4-yl)-1H-pyrazol-4-yl]amino}pyrimidin-4-yl)amino]cyclopentanecarboxamide and (1R,2S)-2-[(5-chloro-2-{[1-(piperidin-4-yl)-1H-pyrazol-4-yl]amino}pyrimidin-4-yl)amino]cyclopentanecarboxamide]"
< 100,< 100,100 to 1000,"Cn1cc(Nc2ncc(Cl)c(N[C@@H]3[C@H](C(N)=O)[C@H]4CC[C@@H]3O4)n2)cn1.Cn1cc(Nc2ncc(Cl)c(N[C@H]3[C@@H](C(N)=O)[C@@H]4CC[C@H]3O4)n2)cn1 (mixture of isomers) [Example 141, (1S,2R,3S,4R)-3-({5-chloro-2-[(1-methyl-1H-pyrazol-4-yl)amino]pyrimidin-4-yl}amino)-7-oxabicyclo[2.2.1]heptane-2-carboxamide and (1R,2S,3R,4S)-3-({5-chloro-2-[(1-methyl-1H-pyrazol-4-yl)amino]pyrimidin-4-yl}amino)-7-oxabicyclo[2.2.1]heptane-2-carboxamide]"
< 100,< 100,100 to 1000,"Cn1cc(Nc2ncc(Cl)c(N[C@@H]3CC[C@@H]3C(N)=O)n2)cn1.Cn1cc(Nc2ncc(Cl)c(N[C@H]3CC[C@H]3C(N)=O)n2)cn1 (mixture of isomers) [Example 151, (1S,2R)-2-({5-chloro-2-[(1-methyl-1H-pyrazol-4-yl)amino]pyrimidin-4-yl}amino)cyclobutanecarboxamide and (1R,2S)-2-({5-chloro-2-[(1-methyl-1H-pyrazol-4-yl)amino]pyrimidin-4-yl}amino)cyclobutanecarboxamide]"
